Reference: patent publication US6406679B1, “Use of HL-60-related lectins in drug delivery and detection of lectin-expressing cells” (Incyte Pharmaceuticals, Inc., priority 1992, dated 2002)
“And” between values parts separate entries of the source, which are not always exact repeats. Identical values can stand only once.

Columns and labels:
[1] = test system: Spleen Cells; test: In vivo effect of lectin on phenotypes of lymphocytes (antibody staining); set-up: species or system rat; settings: for % positive / F^L / % CHANGE IN POSITIVES: Spleen Cells
[2] = test system: SJL/J mice; test: EAE relapse murine model; assay type: in vivo, mouse; settings: 50 μg i.v. days 13 and 15, 100 μg i.v. daily days 18-24, FIG. 13
Text: In mice, symptoms of EAE can be made to occur in cyclical fashion by boosting the animals with antigen following each cycle, and each cycle becomes more severe until death ultimately occurs. This is a useful model in which to determine therapeutic efficacy, since it closely mimics both the chronic disease relapses and the acute demyelination associated with multiple sclerosis. In this experiment, 20 female SJL/J mice were immunized with lyophilized spinal cord extract dissolved in PBS plus CFA on days 0, 7 and 21. Ten mice were injected with recombinant lectin, and ten mice were given buffer only. The lectin-treated mice received 50 μg lectin on days 13 and 15 intravenously in the tail vein, and an additional 100 μg i.v. daily from day 18 through day 24. Mice were followed until death or sacrifice at day 42.
The results in FIG. 13 are mean clinical scores for control and lectin-treated mice.

[3] = test system: BALB/c and C57B/6 mice; test: Experimental autoimmune myasthenia gravis (EAMG): clinical signs of neuromuscular dysfunction; assay type: in vivo, mouse
Text: Experimental autoimmune myasthenia gravis (EAMG) is an antibody-mediated autoimmune disease responding to acetylcholine receptors (AChR). This condition in mice is a recognized model for studying the effects of the autoimmune response on neuromuscular transmission (Levi, G. et al., Eur. J. Immunol. (1983) 13:500-507; Lefvert, A. K. et al., Scand. J. Immunol. (1978) 8:525; Lefvert, A. K. et al., J. Neuro. Immunol. (1985) 9:41; Lefvert, A. K. et al., Eur. J. Immunol. (1982) 12:790). It appears that myasthenia gravis is mediated by T helper cells, which produce acetylcholine receptor antibodies. The disease is induced in mice by injection of acetylcholine receptor. The acetylcholine receptor is obtained from the electric organ of the ray Torpedo marmorata and purified by affinity chromatography on Naja naja siamensis neurotoxin crosslinked to Sephadex.
Young adult female BALB/c and C57B/6 mice (2-4 months of age) were used because they differ in EAMG susceptibility. The mice were injected subcutaneously with 10 μg of purified acetylcholine receptor, in Freund's complete adjuvant without and with the 14 kD-β-gal lectin.
Blood was obtained after 3 days and after 1, 2, 3 and 4 weeks. To follow the development of the disease, the mice were observed daily for signs of neuromuscular dysfunction and after 10 days subjected to forced exercise using repetitive grasping, swimming and inverted hang. These exercises were repeated after warming under a heat lamp at 35° C. for 5 min.

[4] = test system: lymph node cells; test: Response of lymph node cells to the lectin (mitogenicity); assay type: cell-based, rat; settings: data not shown
[5] = test system: Lewis rats; test: Skin allografts (Brown Norway skin on Lewis rats); assay type: in vivo, rat; set-up: key to Hair Growth / Hair Growth, Mean + SD column: whether or not (+ or −) hair growth was restored in the tissue; whether or not (+ or −) hair growth was restored in the tissue
Method: The work in this report was done in the laboratory of Drs. Arthur Vandenbark and Halina Offner at the Oregon VA Medical Center. Brown Norway rat skin was transplanted onto the back of Lewis rats. Identical grafts were done on both sides of each animal's back and the results of each side (separated by commas) were shown for each parameter in Tables 9 and 10. […] A 250 μg/animal dose of lectin was administered i.v. daily on days 2-17.
The protocols for the studies reported in Tables 9 and 10 differed only in that the lectin was delivered for four additional days up to day 21 (see Table 10).

[6] = test system: Human blood cells; test: Staining of lectin-pretreated human blood cells with fluoresceinated antibodies (histogram analyses); assay type: cell-based
Text: Human blood cells were pretreated with the inventive HL-60 lectin and then stained with fluoresceinated antibody having several different specificities. Control cells were not pretreated with lectin. […] However, the effect of lectin treatment on M1 and M3 macrophages was significant.

[7] = test system: T-cell lines; test: Selection of GPBP-specific T-cell lines from draining lymph nodes; assay type: in vivo, rat; settings: lectin-treated rats
Text: In a follow-up experiment, T-cell lines were selected from the draining lymph nodes.

[8] = antibody IgG, lectin-treated rats
[9] = Day 2 to Day 17, individual animals, first-listed graft side, listed as rIML-1
[10] = Day 2 to Day 17, individual animals, second-listed graft side, listed as rIML-1
[11] = Day 2 to Day 21, individual animals, first-listed graft side, listed as rIML-1
[12] = Day 2 to Day 21, individual animals, second-listed graft side, listed as rIML-1
[13] = HLA-DR, lectin-pretreated cells
[14] = NK(L-A), lectin-pretreated cells

Lectin: Soluble 14 kD β-galactoside-binding HL-60/placenta lectin of FIG. 1 (SEQ ID NO:2), prepared recombinantly in E. coli
% positive ([1]; antibody 0X6): 15.6%
F^L ([1]; antibody 0X6): 375
% CHANGE IN POSITIVES ([1]; antibody 0X6, lectin vs control): 0%
% positive ([1]; antibody 0X8): 41.2%
F^L ([1]; antibody 0X8 (suppressor T-cells)): 323
% CHANGE IN POSITIVES ([1]; antibody 0X8, lectin vs control): +32%
% positive ([1]; antibody 0X12): 15.4%
F^L ([1]; antibody 0X12): 363
% CHANGE IN POSITIVES ([1]; antibody 0X12, lectin vs control): 0%
% positive [1, 8]: 24.3%
F^L [1, 8]: 129
% positive ([1]; antibody W3/13): 85.9%
F^L ([1]; antibody W3/13 (total T-cells)): 311
% CHANGE IN POSITIVES ([1]; antibody W3/13, lectin vs control): −19%
% positive ([1]; antibody W3/25): 67.2%
F^L ([1]; antibody W3/25 (helper T-cells)): 161
% CHANGE IN POSITIVES ([1]; antibody W3/25, lectin vs control): −24%
decrease in the numbers of spleen helper T-cells (w3/25 antibody reactive) ([1]; lectin-treated animals): 19%
decrease in the numbers of spleen total T-cells (w3/13 antibody reactive) ([1]; lectin-treated animals): 24%
increase in the number of spleen suppressor T-cells ([1]; lectin-treated animals): 32%
mean clinical scores, first cycle [2]: improved clinical scores
survival and clinical scores, second cycle [2]: improved survival and clinical scores
Mice Showing Clinical Signs of Neuromuscular Dysfunction (%) ([3]; BALB/c, Receptor + 2.5 μg Lectin s.c.): 18%
Mice Showing Clinical Signs of Neuromuscular Dysfunction (%) ([3]; BALB/c, Receptor + 12 μg Lectin s.c.): 4%
Mice Showing Clinical Signs of Neuromuscular Dysfunction (%) ([3]; C57B/6, Receptor + 2.5 μg Lectin s.c.): 59%
Mice Showing Clinical Signs of Neuromuscular Dysfunction (%) ([3]; C57B/6, Receptor + 12 μg Lectin s.c.): 11%
neuromuscular deterioration ([3]; both strains, higher lectin dose levels): markedly slowed
mitogenicity for lymph node cells [4]: not mitogenic
delay of rejection of the grafts ([5]; 250 μg/animal i.v. daily days 2-17, versus control): 7 days
Rejection (on day), Mean ± SD ([5]; Day 2 to Day 17): 17 ± 2 days
Degeneration (on day) [5, 9]: 15 day and 11, day and 14 day
Hair Growth [5, 9]: +, + (3×) and − and +
Rejection (on day) [5, 9]: 16 day and 13, day and 16, day and 18, day (2×)
Degeneration (on day) [5, 10]: 16 day (2×) and 13 day
Hair Growth [5, 10]: +, + (3×) and +
Rejection (on day) [5, 10]: 17 day and 15 day and 16 day and 18 day (2×)
Histology ([5]; Day 2 to Day 17, individual animals, listed as rIML-1): 0
Degeneration (on day), Mean + SD ([5]; Day 2 to Day 21): 17 ± 2 days
Hair Growth, Mean + SD column ([5]; Day 2 to Day 21): +
Rejection (on day), Mean + SD ([5]; Day 2 to Day 21): 19 ± 2 days
Degeneration (on day) [5, 11]: 15 day (3×) and 18, 18 day and 17 day and 18 day
Hair Growth [5, 11]: +, + (5×) and −
Rejection (on day) [5, 11]: 18 day (2×) and 19, 19 day and 21, 21 day and 17 day and 19 day
Degeneration (on day) [5, 12]: 19 day (3×) and 18 day and 18, 18 day and 11 day
Hair Growth [5, 12]: +, + (5×) and +
Rejection (on day) [5, 12]: 23 day and 19, 19 day and 21, 21 day and 13 day and 20 day and 22 day
+FL1 ([6]; CD3+, lectin-pretreated cells): 458
+mode ([6]; CD3+, lectin-pretreated cells): 416
percent ([6]; CD3+, lectin-pretreated cells): 77.8%
+FL1 ([6]; CD4+, lectin-pretreated cells): 181.5
+mode ([6]; CD4+, lectin-pretreated cells): 151
percent ([6]; CD4+, lectin-pretreated cells): 46.4%
+FL1 [6, 13]: 614
+mode [6, 13]: 432
percent [6, 13]: 13.3%
+FL1 ([6]; M1, lectin-pretreated cells): 403
+mode ([6]; M1, lectin-pretreated cells): 387
percent ([6]; M1, lectin-pretreated cells): 46.1%
reduction of the percent of positive cells ([6]; M1 macrophages, lectin vs control): 33%
+FL1 ([6]; M3, lectin-pretreated cells): 549
+mode ([6]; M3, lectin-pretreated cells): 517
percent ([6]; M3, lectin-pretreated cells): 45.1%
reduction of the percent of positive cells ([6]; M3 macrophages, lectin vs control): 26%
+FL1 [6, 14]: 106
+mode [6, 14]: 94.7
percent [6, 14]: 10.8%
changes for CD3+, CD4+, NK(L-A) or HLA-DR cell markers ([6]; lectin vs control): No significant changes
GPBP-specific T-cell lines from draining lymph nodes [7]: no lines could be established
